# How the values were obtained:
# [1] = tested on: A2058 cells; test: Apoptosis, subdiploid DNA content by PI flow cytometry, A2058 cells; assay type: cell-based, human
# Description: (§1) PI incorporation followed by flow cytometric analysis was used to detect the effect of 7 on the number of nuclei with a sub-diploid content, a typical hallmark of apoptosis. A time-dependent increase of apoptosis was evident in both A2058 and SAN cells and in particular, the effect of 7 on cell death program was already evident after 24-h treatment (Figure 7). […] To further investigate on the capacity of 7 to induce apoptosis, the enzymatic activity of caspase-3, the final effector of apoptotic program, was monitored.
# […] After each treatment, cells were harvested with trypsin, centrifuged and the pellet was resuspended in phosphate-buffered saline (PBS). For cell cycle analysis, cells were fixed with 70% (v/v) cold ethanol and stored at −20°C for 1 h. Then, cells were washed with cold PBS, centrifuged and the pellets were resuspended in 200 μL of a non-lysis solution containing 50 μg/mL PI. For the evaluation of apoptosis, cells were not fixed in ethanol and directly resuspended in 200 μL of a hypotonic lysis solution containing 50 μg/mL PI. After incubation at 4°C for 30 min, cells were analyzed with a FACScan flow cytometer (Becton Dickinson) for evaluating the distribution in cell cycle phases or the presence of nuclei with a DNA content lower than the diploid.
# [2] = tested on: SAN cells; test: Cell cycle analysis by PI flow cytometry, SAN cells; assay type: cell-based, human; details: 100 μM, 16 and 24 h
# Experimental: As CDC25 phosphatases are key cell cycle regulators, the effect of 7 on cell cycle progression was investigated in detail. To this aim, asynchronously growing A2058 and SAN cells were treated at different times with 100 μM compound 7, and then cell cycle analysis was cytofluorimetrically monitored after propidium iodide (PI) incorporation. […] After 16-h incubation with […], cells were mainly and almost equally distributed in G0/G1 and G2/M phases (the ratio between them being 0.96), whereas the cellular population in the S phase was essentially undetectable. […] A similar general picture emerged from the effect of compound 7 on cell cycle progression of SAN cells (Supplementary Figure S3).
# Cells were seeded into 6-well plates at 3 × 10^5 cells/well for 24 h at 37°C; after the addition of 100 μM 7 or 0.5% DMSO as a vehicle control, the incubation of treated cells continued for 16 or 24 h. After each treatment, cells were harvested with trypsin, centrifuged and the pellet was resuspended in phosphate-buffered saline (PBS). For cell cycle analysis, cells were fixed with 70% (v/v) cold ethanol and stored at −20°C for 1 h. […] After incubation at 4°C for 30 min, cells were analyzed with a FACScan flow cytometer (Becton Dickinson) for evaluating the distribution in cell cycle phases or the presence of nuclei with a DNA content lower than the diploid.
# [3] = tested on: caspase-3 activity; test: Caspase-3 enzymatic activity in SAN cells; assay type: cell-based, human; details: 100 μM
# Description: as §1
# (§2) To estimate caspase-3 and caspase-9 activity during the treatment with compound 7, the respective enzymatic activities were measured by using caspase-3 and -9 fluorimetric assay kits, according to the manufacturer's protocol, essentially as previously described. Briefly, cells were seeded into 75 cm^2 plates (2 × 10^6 cells/plate) for 24 h at 37°C and then treated with 100 μM 7 or 0.5% DMSO. At the end of each incubation, cells were collected, washed with PBS, and finally lysed at 4°C in the cell lysis buffer. Cell lysates were incubated with 50 μM DEVD-AFC or LEHD-AFC substrates at 37°C for 2 h, to detect caspase-3 or caspase-9 activity, respectively, using a Cary Eclipse fluorescence spectrophotometer (Varian). Excitation and emission wavelengths were set at 400 nm and 505 nm, respectively; both excitation and emission slits were set at 10 nm.
# [4] = biological target: T1, CDC25A (Homo sapiens, UniProt P30304); test: Ki from OMFP hydrolysis kinetics (Lineweaver-Burk), CDC25A; assay type: biochemical; details: 20 nM CDC25A, 1–25 μM OMFP; mean ± S.E.; read-out: Ki CDC25A
# T1 construct: Recombinant forms of the catalytic domains of CDC25A, -B and -C were obtained through the vectors pET28a-CDC25A-cd, pET28a-CDC25B-cd and pET28a-CDC25C-cd; made in house
# T1 sequence (P30304 376-482 limits assumed): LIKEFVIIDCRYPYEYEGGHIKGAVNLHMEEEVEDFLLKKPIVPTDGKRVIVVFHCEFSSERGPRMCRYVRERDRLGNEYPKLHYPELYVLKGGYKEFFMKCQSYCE
# Experimental: To measure the inhibition constant (Ki) of the recombinant forms of CDC25A, -B and -C towards the various inhibitors, the affinity of the different forms of CDC25 towards OMFP was measured either in the absence or in the presence of fixed concentrations of the various inhibitors. The reaction mixture contained 20 nM CDC25A, or 10 nM CDC25B, or 40 nM CDC25C, and different concentrations of the various inhibitors in 500 μL final volume of 20 mM Tris-HCl, pH 7.8, 1 mM DTT. DMSO was used as vehicle control. […] The corresponding Lineweaver-Burk plots allowed the calculation of the KM for OMFP and of the Vmax of OMFP hydrolysis, expressed as a.u./minmax. […] The Ki values were obtained from the decrease of a.u./minmax in the presence of the inhibitor, according to the equation a.u./mimmax’ = a.u./mimmax/{1 + ([I]/Ki)}, where a.u./mimmax’ represents the Vmax measured in the presence of the concentration [I] of the inhibitor. The Ki values were obtained from at least three independent experiments and reported as mean ± S.E.
# [5] = tested on: caspase-9 activity; test: Caspase-9 enzymatic activity in A2058 cells; assay type: cell-based, human; details: A2058, 100 μM, 24 h
# Experimental: Mitochondria represent the primary source of ROS, as well the target of ROS action, and therefore, compound 7 could affect their functionality in melanoma cells. […] Proteins belonging to the B-cell lymphoma-2 (Bcl-2) family are involved in the modulation of the mitochondrial functionality. Therefore, we have evaluated the levels of the anti-apoptotic protein Bcl-2, as well as that of the pro-apoptotic Bcl-2-associated X protein (Bax), after incubation with 7 (Figure 10B). […] To further investigate the occurrence of a mitochondrial-mediated apoptosis induced by 7, the caspase-9 activity was assayed. […] The effect of compound 7 was investigated also in SAN cells and the overall results were similar to those observed in A2058 (Supplementary Figure S6).
# as §2, with “At the end of each incubation, cells were collected, washed with PBS, and finally lysed at 4°C in the cell lysis buffer.” left out, “Excitation and emission wavelengths were set at 400 nm and 505 nm, respectively; both excitation and emission slits were set at 10 nm.” left out
compound,measurement,setting,value
"O=C(O)C1CCCCC1c1c2ccc(=O)cc-2oc2cc(O)ccc12 (stereo not shown) [Compound 7, 2-(6-hydroxy-3-oxo-3H-xanthen-9-yl)cyclohexanecarboxylic acid]",level of apoptosis caused by 7 in the presence of Z-VAD-FMK,"[1]; A2058, 100 μM 7 + 100 μM Z-VAD-FMK, 48 h",significantly decreased
same,apoptosis (nuclei with sub-diploid content),"[1]; A2058, 100 μM, 24-72 h",increase of apoptosis became significant at 48 h
same,apoptosis after NAC pre-treatment,"[1]; A2058, NAC pre-treatment, 100 μM 7, 48 h",in a great part reverted
same,cell distribution in the G2/M phase,[2],increase of cell distribution in the G2/M phase
same,caspase-3 enzymatic activity,[3],significant increase of the enzymatic activity of caspase-3
same,Ki,[4],0.65 ± 0.04 µM
same,caspase-9 activity,[5],clear increase of caspase-9 activity

# Source: PMC4741889, “Ligand-based chemoinformatic discovery of a novel small molecule inhibitor targeting CDC25 dual specificity phosphatases and displaying in vitro efficacy against melanoma cells” (Oncotarget, 2015)
